In publication PMC12706794, “Identification and Characterization of a Small-Molecule Inhibitor of the Pseudomonas aeruginosa SOS Response” (ACS Infectious Diseases, 2025):

Tests used:
[1] = biological target: T1, RecAPa*-induced FlAsH-LexAPa CTD autoproteolysis (Pseudomonas aeruginosa, UniProt P37452); assay: FP-based RecA*-induced LexA autoproteolysis in vitro assay; type: biochemical, P. aeruginosa
T1 construct: 6His-SUMO (N, cleaved yes); made in house; host or cells: E. coli BL21(DE3)
Experimental: A custom-made library of 318 small molecules (MW < 1000 Da) has been screened at two different concentrations (25 μg/mL and 125 μg/mL, corresponding to molar concentrations of 30–170 μM and 150–850 μM, respectively) on the P. aeruginosa SOS system by a previously validated fluorescence polμarization (FP)-based RecA*-induced LexA autoproteolysis in vitro assay. , 1 μM FlAsH-LexAPa ^CTD and 1 μM preactivated RecA*Pa were incubated with the screened chemical fragments for 1 h at 37 °C before measuring FP.
Then, the FP-based LexA autoproteolysis assay was repeated on the two hits, monitoring the full kinetics of LexA cleavage over a 1 h incubation and exploring a wide range of drug concentrations (10–1000 μM).
A custom-made library of 318 chemical fragments (25 mg/mL stock solutions in DMSO), provided by P. Kavaliauskas (Weill Cornell Medicine of Cornell University) was screened in vitro for their ability to inhibit RecAPa*-mediated LexAPa autoproteolysis by a Fluorescence Polarization (FP)-based assay. , Twenty microliter reactions were set up in Nunc 384-Well Black microplates, and final reaction mixtures included 1 μM FlAsH-LexAPa ^CTD, the compounds (5% v/v DMSO in all the samples, including the controls devoid of compounds), and 1 μM RecAPa* (FP Buffer in the negative control; 30 mM Hepes, 150 mM NaCl, pH 7.1). The initial screening was performed with two dilutions of the compounds (25 and 125 μg/mL). The FP signal was measured after a 1 h incubation at 37 °C by an EnVision MultiMode Plate Reader (PerkinElmer) equipped with opportune FP filters and mirrors. To obtain LexAPa ^CTD autoproteolysis percent inhibition, FP data were scaled from 0% (corresponding to the positive control sample) to 100% (negative control).
Compounds displaying an inhibition of at least 50% at the highest concentration and a rather consistent increase in activity at the two tested concentrations were selected as the hits.
The same FP assay was carried out on serial dilutions of selected compounds to determine the dose–response relationship. To evaluate the effect of a reducing environment, 2 mM Tris(2-carboxyethyl)-phosphine (TCEP) was added to the reaction mixtures. The FP signal of FlAsH-LexAPa ^CTD alone was detected for 5 min before adding the compounds. The system was monitored for an additional 5 min in the presence of the tested compounds in order to observe potential aggregation events. Then, RecAPa* was added, and the autoproteolysis reaction was followed for 1 h at 37 °C (1 reading per minute). FlAsH-LexAPa ^CTD autoproteolysis percent inhibition was calculated as mentioned above and plotted as a function of compound concentration. Experimental data fitting was performed with GraphPad Prism 8 to obtain the absolute IC50.

[2] = tested on: P. aeruginosa PAO1 on A549 lung epithelial cells; assay: P. aeruginosa PAO1 colonization of A549 lung epithelial cells; type: cell-based
[3] = tested on: P. aeruginosa PAO1 on THP-1-derived macrophages; assay: P. aeruginosa PAO1 colonization of THP-1-derived macrophages; type: cell-based
Experimental: THP-1-derived macrophages were generated from THP-1 monocytes as previously described, with minor modifications. , Briefly, THP-1 monocytes were washed three times with antibiotic-free RPMI 1640 medium and resuspended in complete antibiotic-free RPMI 1640 supplemented with 300 nM phorbol 12-myristate 13-acetate (PMA). Cells were incubated for 24 h, followed by a 48 h rest period in PMA-free RPMI 1640 prior to use in subsequent experiments. […] PMA-differentiated THP-1-derived macrophages were similarly trypsinized and seeded into 24-well plates at 5 × 10^5 cells/well in complete, antibiotic-free RPMI supplemented with FBS. Cells were incubated overnight to allow for attachment. Immediately prior to infection, the medium was aspirated, and cells were washed three times with Dulbecco’s phosphate-buffered saline. […] Infection was synchronized by centrifuging plates at 1000g for 1 min. […] Following the infection period, the medium was aspirated, and cells were washed three times with DPBS to remove unattached bacteria and residual test compounds. […] In both cases, the resulting lysates were serially diluted in DPBS and plated on tryptic soy agar plates. Plates were incubated at 37 °C for 24 h, after which colonies were enumerated. Bacterial burden was expressed as the CFU per well.

[4] = combination of ciprofloxacin 0.5 μg/mL and A12 100 μg/mL

T1 sequence (P37452 81-204): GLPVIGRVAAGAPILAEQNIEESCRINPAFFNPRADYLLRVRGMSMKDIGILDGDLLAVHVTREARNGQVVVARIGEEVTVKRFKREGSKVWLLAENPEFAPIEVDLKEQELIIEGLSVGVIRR

Structure (SMILES): O=C(O)CCNc1ccccc1S [A12, 3-(2-sulfanylanilino)propanoic acid]
- IC50 ([1]; 1 μM FlAsH-LexAPa CTD, 1 μM RecAPa*, 1 h at 37 °C, read-out: IC50 on RecA*Pa-induced LexAPa autoproteolysis (FP assay)): 295 ± 12 µM
- A12 inhibitory activity under reducing conditions compared to nonreducing ([1]; 2 mM TCEP): significantly diminished
- inhibition at 125 µg/mL ([1]; compound at 125 μg/mL, 1 h at 37 °C, read-out: LexA autoproteolysis inhibition in initial library screening): > 50%
- Intracellular (internalized) burden of PAO1 in A549 cells ([2]; A12 100 μg/mL alone): reduced the internalized bacterial growth
- Intracellular (internalized) burden of PAO1 in A549 cells [2, 4]: synergized with ciprofloxacin
- Total (adherent + intracellular) burden of PAO1 on A549 lung cells [2, 4]: significantly reduced colonization
- Intracellular (internalized) burden of PAO1 in THP-1-derived macrophages ([3]; A12 100 μg/mL alone): reduced the internalized bacterial growth
- Intracellular (internalized) burden of PAO1 in THP-1-derived macrophages [3, 4]: synergized with ciprofloxacin
- Total (adherent + intracellular) burden of PAO1 on THP-1-derived macrophages ([3]; single agent: ciprofloxacin 0.5 μg/mL or A12 100 μg/mL, 3 h infection): diminished
